The source of these data is ChEMBL document CHEMBL4627270, “Design, synthesis and biological evaluation of novel carbamates as potential inhibitors of acetylcholinesterase and butyrylcholinesterase” (Bioorg Med Chem, 2020).

Where only a bound is given, the exact number is not on record here.

Assay [1] addresses Cholinesterase (Equus caballus, UniProt P81908). Briefly: Inhibition of equine serum BChE using S-butyrylthiocholine iodide as substrate preincubated for 60 mins followed by substrate addition and measured for 5 mins by Ellman's method. (In general: DTNB colorimetry detects thiols as they appear.)
Assay [2] addresses Acetylcholinesterase (Electrophorus electricus, UniProt O42275). In words: Inhibition of electric eel AChE using S-acetylthiocholine iodide as substrate preincubated for 60 mins followed by substrate addition and measured for 5 mins by Ellman's method.
Assay [3] has as its target T1, Cholinesterase (Homo sapiens, UniProt P06276). Briefly: Inhibition of human plasma BChE assessed as second order carbamylation rate constant using S-butyrylthiocholine iodide as substrate preincubated for 15 to 60 mins followed by substrate addition by Ellman's method.
In assay [4] the target is Acetylcholinesterase (Homo sapiens, UniProt P22303). In words: Inhibition of human erythrocyte AChE using S-acetylthiocholine iodide as substrate preincubated for 60 mins followed by substrate addition and measured for 5 mins by Ellman's method.
Acetylcholinesterase (Homo sapiens, UniProt P22303), sequence (P22303 whole entry): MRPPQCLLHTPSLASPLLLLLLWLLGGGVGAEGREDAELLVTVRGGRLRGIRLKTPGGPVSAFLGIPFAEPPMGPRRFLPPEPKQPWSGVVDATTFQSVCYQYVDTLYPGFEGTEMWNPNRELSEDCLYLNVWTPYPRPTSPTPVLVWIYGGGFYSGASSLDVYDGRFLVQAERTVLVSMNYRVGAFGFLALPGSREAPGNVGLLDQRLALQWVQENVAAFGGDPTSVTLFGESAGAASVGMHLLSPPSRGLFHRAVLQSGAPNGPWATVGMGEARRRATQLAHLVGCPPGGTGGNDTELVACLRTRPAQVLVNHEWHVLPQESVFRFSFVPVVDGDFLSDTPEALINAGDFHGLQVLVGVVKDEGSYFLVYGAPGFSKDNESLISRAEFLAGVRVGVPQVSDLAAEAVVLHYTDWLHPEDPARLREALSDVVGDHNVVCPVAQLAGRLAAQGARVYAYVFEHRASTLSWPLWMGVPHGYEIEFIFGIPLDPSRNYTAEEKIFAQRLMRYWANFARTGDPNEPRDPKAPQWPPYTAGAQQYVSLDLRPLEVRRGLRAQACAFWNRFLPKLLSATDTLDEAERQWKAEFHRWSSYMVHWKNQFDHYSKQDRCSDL
For assay [5], the target named is T1, Cholinesterase. Briefly: Inhibition of human plasma BChE using S-butyrylthiocholine iodide as substrate preincubated for 60 mins followed by substrate addition and measured for 5 mins by Ellman's method.
In assay [6] the target is T1, Cholinesterase. Briefly: Inhibition of human plasma BChE assessed as decarbamylation rate constant using S-butyrylthiocholine iodide as substrate preincubated for 15 to 60 mins followed by substrate addition by Ellman's method.
Assay [7] has as its target T1, Cholinesterase. In words: Inhibition of human plasma BChE using S-butyrylthiocholine iodide as substrate preincubated for 20 to 60 mins followed by substrate addition and measured for 5 mins by Ellman's method.
The target in assay [8] is T1, Cholinesterase. Briefly: Potency index, ratio of test compound to rivastigmine for inhibition of human plasma BChE assessed as second order carbamylation rate constant using S-butyrylthiocholine iodide as substrate.
In assay [9] the target is T1, Cholinesterase. Briefly: Inhibition of human plasma BChE at 2.5 to 25 nM using S-butyrylthiocholine iodide as substrate incubated prior to substrate addition and measured for 5 mins by Ellman's method. The conditions noted are these: TDE = time-dependent effect.
The target of assay [10] is T1, Cholinesterase. In words: Inhibition of human plasma BChE at 15 to 100 nM using S-butyrylthiocholine iodide as substrate incubated prior to substrate measured for 5 mins by Ellman's method. Conditions: TDE = time-dependent effect.

Cholinesterase (Equus caballus, UniProt P81908), sequence (P81908 whole entry): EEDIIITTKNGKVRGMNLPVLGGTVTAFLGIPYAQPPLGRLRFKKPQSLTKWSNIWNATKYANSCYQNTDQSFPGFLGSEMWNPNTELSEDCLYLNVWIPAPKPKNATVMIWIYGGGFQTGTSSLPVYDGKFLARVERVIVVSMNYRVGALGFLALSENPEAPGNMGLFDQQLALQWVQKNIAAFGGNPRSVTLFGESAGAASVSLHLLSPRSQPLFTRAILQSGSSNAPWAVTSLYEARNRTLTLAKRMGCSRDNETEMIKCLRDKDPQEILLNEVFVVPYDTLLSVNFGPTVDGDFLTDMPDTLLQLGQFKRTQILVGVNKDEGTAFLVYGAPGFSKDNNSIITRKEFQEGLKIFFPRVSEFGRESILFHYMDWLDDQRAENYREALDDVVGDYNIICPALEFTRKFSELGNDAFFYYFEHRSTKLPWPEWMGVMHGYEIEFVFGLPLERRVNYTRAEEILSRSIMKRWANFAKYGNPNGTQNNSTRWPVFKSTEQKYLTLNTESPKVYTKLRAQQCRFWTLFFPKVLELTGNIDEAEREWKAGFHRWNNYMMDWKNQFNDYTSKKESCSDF
T1 sequence (P06276 whole entry): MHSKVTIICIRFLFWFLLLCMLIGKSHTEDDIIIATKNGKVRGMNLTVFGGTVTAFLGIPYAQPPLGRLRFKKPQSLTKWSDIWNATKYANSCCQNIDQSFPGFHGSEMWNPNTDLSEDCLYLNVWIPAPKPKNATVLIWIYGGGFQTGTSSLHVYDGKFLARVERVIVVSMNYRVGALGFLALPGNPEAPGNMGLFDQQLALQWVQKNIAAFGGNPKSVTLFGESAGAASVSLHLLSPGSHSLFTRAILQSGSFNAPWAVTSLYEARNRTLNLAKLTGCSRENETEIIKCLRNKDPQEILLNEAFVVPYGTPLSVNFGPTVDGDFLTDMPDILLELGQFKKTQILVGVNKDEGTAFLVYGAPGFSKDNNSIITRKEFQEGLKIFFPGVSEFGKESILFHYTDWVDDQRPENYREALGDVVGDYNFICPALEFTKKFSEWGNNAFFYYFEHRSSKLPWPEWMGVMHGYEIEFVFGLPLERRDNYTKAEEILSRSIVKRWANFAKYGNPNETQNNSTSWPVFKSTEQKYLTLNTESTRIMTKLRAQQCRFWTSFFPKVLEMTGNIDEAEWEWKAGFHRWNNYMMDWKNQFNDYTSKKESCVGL
Acetylcholinesterase (Electrophorus electricus, UniProt O42275), sequence (O42275 whole entry): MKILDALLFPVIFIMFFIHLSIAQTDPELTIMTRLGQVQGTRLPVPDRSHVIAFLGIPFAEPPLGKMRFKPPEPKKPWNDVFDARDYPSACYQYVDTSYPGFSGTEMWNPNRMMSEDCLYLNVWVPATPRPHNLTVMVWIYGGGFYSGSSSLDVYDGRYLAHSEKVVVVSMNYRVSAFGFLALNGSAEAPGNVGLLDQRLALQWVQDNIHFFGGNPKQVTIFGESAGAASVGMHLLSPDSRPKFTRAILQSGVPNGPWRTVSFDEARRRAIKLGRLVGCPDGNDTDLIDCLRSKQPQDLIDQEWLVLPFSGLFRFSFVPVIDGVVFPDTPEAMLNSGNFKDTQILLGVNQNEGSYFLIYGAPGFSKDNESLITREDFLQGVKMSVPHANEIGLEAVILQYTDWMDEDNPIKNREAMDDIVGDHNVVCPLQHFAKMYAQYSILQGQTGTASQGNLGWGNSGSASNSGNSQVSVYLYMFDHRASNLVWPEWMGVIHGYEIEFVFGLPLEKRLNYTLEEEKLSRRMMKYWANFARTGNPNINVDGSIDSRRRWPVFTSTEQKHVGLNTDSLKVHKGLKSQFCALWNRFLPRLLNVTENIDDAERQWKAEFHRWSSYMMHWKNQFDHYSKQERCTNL

The term IC50 denotes the midpoint of a concentration-inhibition curve. For the compound `CN(C)C(=O)Oc1cccc(C(O)CN2CCOCC2)c1` (stereo not drawn), the IC50 against Cholinesterase [1] is 2.19 µM; against Acetylcholinesterase [2], above 100 µM.
Take `CN(C)C(=O)Oc1cccc(C(O)CNC2CCCCC2)c1` (stereo not drawn): the K at Cholinesterase [3] was 1110 ×10⁴ /M/min; at Cholinesterase [6] it was 18.9 ×10⁻³ /min. For the same compound, the half-maximal inhibitory concentration (IC50) came out at 792 µM on Acetylcholinesterase [4], 2.2 µM on Cholinesterase [5], 0.008 µM against Cholinesterase [1] and 1.87 µM at Acetylcholinesterase [2]. Moreover, the results for the inhibition result at Cholinesterase [7] and on Cholinesterase [9] were “Dose-dependent effect” and “Tde”, respectively. In addition, the Ratio on Cholinesterase [8] came to 10.
For the compound `CCC(C)(C)NCC(O)c1cccc(OC(=O)N(C)C)c1` (stereo not drawn), the concentration for half-maximal inhibition (IC50) against Cholinesterase [1] stood at 0.18 µM; against Acetylcholinesterase [2], 4.15 µM.
For the compound `CN(C)C(=O)Oc1ccc(C(O)CNC(C)(C)C)cc1` (stereo not drawn), the IC50 at Cholinesterase [1] was 5.37 µM; against Acetylcholinesterase [2], 15 µM.
For the compound `CN(C)C(=O)Oc1ccc(C(O)CN2CCCCC2)cc1` (stereo not drawn), the IC50 against Cholinesterase [1] worked out at 0.245 µM; against Acetylcholinesterase [2], 3.51 µM.
For the compound `CCC(C)(C)NCC(O)c1ccc(OC(=O)N(C)C)cc1` (stereo not drawn), the 50% inhibitory concentration (IC50) came out at 1.57 µM at Cholinesterase [1] and 15.9 µM against Acetylcholinesterase [2].
As to `CN(C)C(=O)Oc1cccc(C(O)CNc2ccc(F)cc2)c1` (stereo not drawn), the figures for the IC50 against Cholinesterase [1] and on Acetylcholinesterase [2] were 0.194 µM and 45.4 µM, respectively.
The corresponding values for `CN(C)C(=O)Oc1cccc(C(O)CNC(C)(C)C)c1` (stereo not drawn) are 0.383 µM and 6.08 µM.
Turning to `CN(C)C(=O)Oc1cccc(C(O)CNC2CCCC2)c1` (stereo not drawn), the results for the half-maximal inhibitory concentration (IC50) at Cholinesterase [1] and against Acetylcholinesterase [2] were 0.057 µM and 1.39 µM, respectively.
In the case of `C#Cc1cccc(NCC(O)c2cccc(OC(=O)N(C)C)c2)c1` (stereo not drawn), the 50% inhibitory concentration (IC50) against Cholinesterase [1] stood at 0.154 µM; on Acetylcholinesterase [2] it was 70.5 µM.
Consider `CN(C)C(=O)Oc1cccc(C(O)CNc2ccccc2)c1` (stereo not drawn), for which the IC50 amounted to 0.282 µM against Cholinesterase [1] and 67.5 µM against Acetylcholinesterase [2].
`CCN(C)C(=O)Oc1cccc([C@H](C)N(C)C)c1`: the K was determined as 33.3 ×10⁴ /M/min at Cholinesterase [3] and 2.3 ×10⁻³ /min at Cholinesterase [6].
With `CN(C)C(=O)Oc1ccc(C(O)CNC2CCCCC2)cc1` (stereo not drawn), the figures for the K at Cholinesterase [3] and on Cholinesterase [6] were 206 ×10⁴ /M/min and 14.8 ×10⁻³ /min, respectively. For the same compound, the IC50 against Acetylcholinesterase [4] was found to be 266 µM; against Cholinesterase [5], 10.6 µM; at Cholinesterase [1], 0.027 µM; against Acetylcholinesterase [2] it was 0.655 µM. Further, the inhibition entry on Cholinesterase [10] was “Tde”; at Cholinesterase [7] it was “Dose-dependent effect”. Moreover, at Cholinesterase [8], the Ratio worked out at 20.
Turning to `CN(C)C(=O)Oc1cccc(C(O)CN2CCCCC2)c1` (stereo not drawn), the IC50 turned out to be 0.097 µM at Cholinesterase [1] and 3.74 µM on Acetylcholinesterase [2].
On to `CN(C)C(=O)Oc1cccc(C(O)CN2CCCC2)c1` (stereo not drawn), for which the IC50 on Cholinesterase [1] was 0.179 µM; at Acetylcholinesterase [2], 3.15 µM.
Regarding `CN(C)C(=O)Oc1cccc(C(O)CNc2ccc(I)cc2)c1` (stereo not drawn), the results for the half-inhibitory concentration (IC50) at Cholinesterase [1] and on Acetylcholinesterase [2] were 0.381 µM and 28.9 µM, respectively.
As to `CN(C)C(=O)Oc1cccc(C(O)CNC(C)(C)c2ccccc2)c1` (stereo not drawn), the IC50 at Cholinesterase [1] is 0.303 µM; on Acetylcholinesterase [2] it was 7.12 µM.
